Data reported in the NIST ThermoML archive (doi:10.1016/j.jct.2015.11.023).

Experiments:
[1] = refractive index (Na D-line) (dimensionless); wn = mass fraction of the nth substance listed; details: 100 kPa, Liquid, Standard Abbe refractometry
[2] = wn = mass fraction of the nth substance listed; details: for surface tension liquid-gas: Maximal bubble pressure; for mass density: 100 kPa, Liquid, Vibrating tube method

CCC[n+]1ccccc1.N#C[N-]C#N [1-propylpyridinium dicyanamide] + O
Details	mass density [kg/m3]	refractive index	surface tension liquid-gas [mN/m]
[1], 303.15 K, w2 = 0.00205	–	1.5386	–
[1], 303.15 K, w2 = 0.00353	–	1.5384	–
[1], 303.15 K, w2 = 0.00496	–	1.5381	–
[1], 303.15 K, w2 = 0.00639	–	1.5378	–
[1], 303.15 K, w2 = 0.0079	–	1.5375	–
[1], 308.15 K, w2 = 0.00205	–	1.537	–
[1], 308.15 K, w2 = 0.00353	–	1.5368	–
[1], 308.15 K, w2 = 0.00496	–	1.5365	–
[1], 308.15 K, w2 = 0.00639	–	1.5362	–
[1], 308.15 K, w2 = 0.0079	–	1.5359	–
[1], 313.15 K, w2 = 0.00205	–	1.5352	–
[1], 313.15 K, w2 = 0.00353	–	1.5349	–
[1], 313.15 K, w2 = 0.00496	–	1.5347	–
[1], 313.15 K, w2 = 0.00639	–	1.5344	–
[1], 313.15 K, w2 = 0.0079	–	1.5341	–
[1], 318.15 K, w2 = 0.00205	–	1.5338	–
[1], 318.15 K, w2 = 0.00353	–	1.5335	–
[1], 318.15 K, w2 = 0.00496	–	1.5332	–
[1], 318.15 K, w2 = 0.00639	–	1.5329	–
[1], 318.15 K, w2 = 0.0079	–	1.5327	–
[1], 323.15 K, w2 = 0.00205	–	1.5325	–
[1], 323.15 K, w2 = 0.00353	–	1.5322	–
[1], 323.15 K, w2 = 0.00496	–	1.5319	–
[1], 323.15 K, w2 = 0.00639	–	1.5316	–
[1], 323.15 K, w2 = 0.0079	–	1.5313	–
[1], 328.15 K, w2 = 0.00205	–	1.5308	–
[1], 328.15 K, w2 = 0.00353	–	1.5306	–
[1], 328.15 K, w2 = 0.00496	–	1.5303	–
[1], 328.15 K, w2 = 0.00639	–	1.5301	–
[1], 328.15 K, w2 = 0.0079	–	1.5298	–
[1], 333.15 K, w2 = 0.00205	–	1.529	–
[1], 333.15 K, w2 = 0.00353	–	1.5288	–
[1], 333.15 K, w2 = 0.00496	–	1.5286	–
[1], 333.15 K, w2 = 0.00639	–	1.5283	–
[1], 333.15 K, w2 = 0.0079	–	1.5281	–
[1], 338.15 K, w2 = 0.00205	–	1.5273	–
[1], 338.15 K, w2 = 0.00353	–	1.527	–
[1], 338.15 K, w2 = 0.00496	–	1.5268	–
[1], 338.15 K, w2 = 0.00639	–	1.5265	–
[1], 338.15 K, w2 = 0.0079	–	1.5263	–
[2], 303.15 K, w2 = 0.00121	1086.72	–	–
[2], 303.15 K, w2 = 0.00205	–	–	58.1
[2], 303.15 K, w2 = 0.00271	1086.48	–	–
[2], 303.15 K, w2 = 0.0035	–	–	58.4
[2], 303.15 K, w2 = 0.00412	1086.25	–	–
[2], 303.15 K, w2 = 0.005	–	–	58.7
[2], 303.15 K, w2 = 0.00573	1085.98	–	–
[2], 303.15 K, w2 = 0.00649	–	–	59
[2], 303.15 K, w2 = 0.00724	1085.74	–	–
[2], 303.15 K, w2 = 0.00802	–	–	59.3
[2], 308.15 K, w2 = 0.00121	1083.57	–	–
[2], 308.15 K, w2 = 0.00205	–	–	57.8
[2], 308.15 K, w2 = 0.00271	1083.3	–	–
[2], 308.15 K, w2 = 0.0035	–	–	58.1
[2], 308.15 K, w2 = 0.00412	1083.06	–	–
[2], 308.15 K, w2 = 0.005	–	–	58.4
[2], 308.15 K, w2 = 0.00573	1082.77	–	–
[2], 308.15 K, w2 = 0.00649	–	–	58.7
[2], 308.15 K, w2 = 0.00724	1082.49	–	–
[2], 308.15 K, w2 = 0.00802	–	–	59
[2], 313.15 K, w2 = 0.00121	1080.46	–	–
[2], 313.15 K, w2 = 0.00205	–	–	57.4
[2], 313.15 K, w2 = 0.00271	1080.2	–	–
[2], 313.15 K, w2 = 0.0035	–	–	57.8
[2], 313.15 K, w2 = 0.00412	1079.95	–	–
[2], 313.15 K, w2 = 0.005	–	–	58.1
[2], 313.15 K, w2 = 0.00573	1079.65	–	–
[2], 313.15 K, w2 = 0.00649	–	–	58.4
[2], 313.15 K, w2 = 0.00724	1079.36	–	–
[2], 313.15 K, w2 = 0.00802	–	–	58.7
[2], 318.15 K, w2 = 0.00121	1077.36	–	–
[2], 318.15 K, w2 = 0.00205	–	–	57.1
[2], 318.15 K, w2 = 0.00271	1077.12	–	–
[2], 318.15 K, w2 = 0.0035	–	–	57.5
[2], 318.15 K, w2 = 0.00412	1076.87	–	–
[2], 318.15 K, w2 = 0.005	–	–	57.8
[2], 318.15 K, w2 = 0.00573	1076.55	–	–
[2], 318.15 K, w2 = 0.00649	–	–	58.1
[2], 318.15 K, w2 = 0.00724	1076.27	–	–
[2], 318.15 K, w2 = 0.00802	–	–	58.4
[2], 323.15 K, w2 = 0.00121	1074.29	–	–
[2], 323.15 K, w2 = 0.00205	–	–	56.9
[2], 323.15 K, w2 = 0.00271	1074.02	–	–
[2], 323.15 K, w2 = 0.0035	–	–	57.2
[2], 323.15 K, w2 = 0.00412	1073.79	–	–
[2], 323.15 K, w2 = 0.005	–	–	57.5
[2], 323.15 K, w2 = 0.00573	1073.46	–	–
[2], 323.15 K, w2 = 0.00649	–	–	57.8
[2], 323.15 K, w2 = 0.00724	1073.19	–	–
[2], 323.15 K, w2 = 0.00802	–	–	58.2
[2], 328.15 K, w2 = 0.00121	1071.24	–	–
[2], 328.15 K, w2 = 0.00205	–	–	56.5
[2], 328.15 K, w2 = 0.00271	1070.97	–	–
[2], 328.15 K, w2 = 0.0035	–	–	56.8
[2], 328.15 K, w2 = 0.00412	1070.72	–	–
[2], 328.15 K, w2 = 0.005	–	–	57.2
[2], 328.15 K, w2 = 0.00573	1070.41	–	–
[2], 328.15 K, w2 = 0.00649	–	–	57.5
[2], 328.15 K, w2 = 0.00724	1070.15	–	–
[2], 328.15 K, w2 = 0.00802	–	–	57.8
[2], 333.15 K, w2 = 0.00121	1068.17	–	–
[2], 333.15 K, w2 = 0.00205	–	–	56.2
[2], 333.15 K, w2 = 0.00271	1067.92	–	–
[2], 333.15 K, w2 = 0.0035	–	–	56.5
[2], 333.15 K, w2 = 0.00412	1067.67	–	–
[2], 333.15 K, w2 = 0.005	–	–	56.9
[2], 333.15 K, w2 = 0.00573	1067.34	–	–
[2], 333.15 K, w2 = 0.00649	–	–	57.2
[2], 333.15 K, w2 = 0.00724	1067.04	–	–
[2], 333.15 K, w2 = 0.00802	–	–	57.6
[2], 338.15 K, w2 = 0.00121	1065.15	–	–
[2], 338.15 K, w2 = 0.00205	–	–	55.8
[2], 338.15 K, w2 = 0.00271	1064.88	–	–
[2], 338.15 K, w2 = 0.0035	–	–	56.1
[2], 338.15 K, w2 = 0.00412	1064.64	–	–
[2], 338.15 K, w2 = 0.005	–	–	56.5
[2], 338.15 K, w2 = 0.00573	1064.3	–	–
[2], 338.15 K, w2 = 0.00649	–	–	56.8
[2], 338.15 K, w2 = 0.00724	1063.99	–	–
[2], 338.15 K, w2 = 0.00802	–	–	57.1
